In the NIST ThermoML archive (doi:10.1021/je700145e):
± gives the expanded uncertainty stated by the source.

Details: Liquid

CCCCCCCCO [octan-1-ol]
Details | mass density [kg/m3]
313.14 K, 1004 kPa | 811.26 ± 0.59
313.14 K, 2019 kPa | 811.95 ± 0.61
313.14 K, 3000 kPa | 812.59 ± 0.63
313.14 K, 4020 kPa | 813.22 ± 0.65
313.14 K, 4995 kPa | 813.89 ± 0.67
313.14 K, 6000 kPa | 814.53 ± 0.69
313.14 K, 7007 kPa | 815.21 ± 0.71
313.14 K, 8012 kPa | 815.83 ± 0.73
313.14 K, 8994 kPa | 816.51 ± 0.75
313.14 K, 10014 kPa | 817.19 ± 0.77
313.14 K, 11007 kPa | 817.79 ± 0.79
313.14 K, 12000 kPa | 818.42 ± 0.81
313.14 K, 12997 kPa | 819.05 ± 0.83
313.14 K, 14001 kPa | 819.67 ± 0.86
313.14 K, 14997 kPa | 820.27 ± 0.88
313.14 K, 16002 kPa | 820.89 ± 0.9
313.14 K, 17001 kPa | 821.48 ± 0.92
313.14 K, 17997 kPa | 822.1 ± 0.94
313.14 K, 19004 kPa | 822.69 ± 0.96
313.14 K, 20007 kPa | 823.28 ± 0.98
313.14 K, 21004 kPa | 823.86 ± 1
323.09 K, 1007 kPa | 804.26 ± 0.6
323.09 K, 2016 kPa | 804.97 ± 0.62
323.09 K, 3019 kPa | 805.7 ± 0.64
323.09 K, 4025 kPa | 806.4 ± 0.66
323.09 K, 5012 kPa | 807.07 ± 0.68
323.09 K, 6093 kPa | 807.82 ± 0.71
323.09 K, 7143 kPa | 808.56 ± 0.73
323.09 K, 8009 kPa | 809.12 ± 0.75
323.09 K, 8989 kPa | 809.77 ± 0.77
323.09 K, 10014 kPa | 810.47 ± 0.79
323.09 K, 11031 kPa | 811.14 ± 0.81
323.09 K, 12010 kPa | 811.82 ± 0.83
323.09 K, 13005 kPa | 812.44 ± 0.85
323.09 K, 14003 kPa | 813.11 ± 0.87
323.09 K, 15012 kPa | 813.76 ± 0.9
323.09 K, 16009 kPa | 814.4 ± 0.92
323.09 K, 17005 kPa | 815.04 ± 0.94
323.09 K, 18013 kPa | 815.66 ± 0.96
323.09 K, 19003 kPa | 816.26 ± 0.98
323.09 K, 20025 kPa | 816.9 ± 1
323.09 K, 21081 kPa | 817.56 ± 1
323.09 K, 22009 kPa | 818.09 ± 1.1
333.05 K, 1038 kPa | 797.31 ± 0.61
333.05 K, 2029 kPa | 798.03 ± 0.63
333.05 K, 2999 kPa | 798.76 ± 0.65
333.05 K, 4033 kPa | 799.51 ± 0.67
333.05 K, 5020 kPa | 800.25 ± 0.69
333.05 K, 6014 kPa | 800.97 ± 0.72
333.05 K, 7029 kPa | 801.69 ± 0.74
333.05 K, 8011 kPa | 802.44 ± 0.76
333.05 K, 9005 kPa | 803.11 ± 0.78
333.05 K, 10022 kPa | 803.83 ± 0.81
333.05 K, 11011 kPa | 804.55 ± 0.83
333.05 K, 12021 kPa | 805.23 ± 0.85
333.05 K, 13022 kPa | 805.92 ± 0.87
333.05 K, 14031 kPa | 806.61 ± 0.89
333.05 K, 15010 kPa | 807.28 ± 0.92
333.05 K, 16023 kPa | 807.92 ± 0.94
333.05 K, 17012 kPa | 808.59 ± 0.96
333.05 K, 18035 kPa | 809.23 ± 0.99
333.05 K, 19009 kPa | 809.87 ± 1
333.05 K, 20002 kPa | 810.51 ± 1
333.05 K, 21011 kPa | 811.15 ± 1.1
333.05 K, 22019 kPa | 811.82 ± 1.1
343.03 K, 1049 kPa | 790.6 ± 0.62
343.03 K, 2003 kPa | 791.16 ± 0.64
343.03 K, 2981 kPa | 791.93 ± 0.66
343.03 K, 4017 kPa | 792.68 ± 0.68
343.03 K, 5000 kPa | 793.37 ± 0.71
343.03 K, 6005 kPa | 794.05 ± 0.73
343.03 K, 7018 kPa | 794.88 ± 0.75
343.03 K, 8104 kPa | 795.68 ± 0.78
343.03 K, 9014 kPa | 796.44 ± 0.8
343.03 K, 10022 kPa | 797.1 ± 0.82
343.03 K, 11028 kPa | 797.87 ± 0.84
343.03 K, 11997 kPa | 798.58 ± 0.87
343.03 K, 13030 kPa | 799.3 ± 0.89
343.03 K, 14005 kPa | 800 ± 0.91
343.03 K, 15002 kPa | 800.66 ± 0.94
343.03 K, 16032 kPa | 801.38 ± 0.96
343.03 K, 17016 kPa | 801.99 ± 0.99
343.03 K, 18012 kPa | 802.68 ± 1
343.03 K, 19005 kPa | 803.29 ± 1
343.03 K, 20018 kPa | 803.98 ± 1.1
343.03 K, 21014 kPa | 804.61 ± 1.1
343.03 K, 22004 kPa | 805.23 ± 1.1
352.89 K, 1023 kPa | 782.71 ± 0.63
352.89 K, 2011 kPa | 783.55 ± 0.65
352.89 K, 3032 kPa | 784.42 ± 0.67
352.89 K, 4022 kPa | 785.42 ± 0.7
352.89 K, 5005 kPa | 786.18 ± 0.72
352.89 K, 6026 kPa | 787.13 ± 0.74
352.89 K, 7003 kPa | 787.9 ± 0.77
352.89 K, 8016 kPa | 788.71 ± 0.79
352.89 K, 9007 kPa | 789.47 ± 0.81
352.89 K, 10003 kPa | 790.22 ± 0.84
352.89 K, 11022 kPa | 791 ± 0.86
352.89 K, 12170 kPa | 791.78 ± 0.89
352.89 K, 13015 kPa | 792.51 ± 0.91
352.89 K, 14018 kPa | 793.24 ± 0.94
352.89 K, 15009 kPa | 794 ± 0.96
352.89 K, 16023 kPa | 794.74 ± 0.98
352.89 K, 17010 kPa | 795.48 ± 1
352.89 K, 18002 kPa | 796.16 ± 1
352.89 K, 19029 kPa | 796.9 ± 1.1
352.89 K, 20046 kPa | 797.63 ± 1.1
352.89 K, 21023 kPa | 798.3 ± 1.1
362.77 K, 1051 kPa | 775.67 ± 0.64
362.77 K, 2025 kPa | 776.41 ± 0.66
362.77 K, 3016 kPa | 777.19 ± 0.68
362.77 K, 4009 kPa | 778.05 ± 0.71
362.77 K, 4974 kPa | 778.77 ± 0.73
362.77 K, 6005 kPa | 779.51 ± 0.76
362.77 K, 7006 kPa | 780.3 ± 0.78
362.77 K, 8011 kPa | 780.95 ± 0.81
362.77 K, 9008 kPa | 781.79 ± 0.83
362.77 K, 10034 kPa | 782.62 ± 0.86
362.77 K, 11013 kPa | 783.32 ± 0.88
362.77 K, 11987 kPa | 784.03 ± 0.91
362.77 K, 13015 kPa | 784.77 ± 0.93
362.77 K, 14006 kPa | 785.51 ± 0.96
362.77 K, 14997 kPa | 786.3 ± 0.98
362.77 K, 16001 kPa | 787.03 ± 1
362.77 K, 17013 kPa | 787.79 ± 1
362.77 K, 17997 kPa | 788.55 ± 1.1
362.77 K, 19000 kPa | 789.33 ± 1.1
362.77 K, 20023 kPa | 790.04 ± 1.1
362.77 K, 21004 kPa | 790.83 ± 1.2
